Results: patent publication US20020137929A1, “1 - (3-heterocyclylphenyl) isothiourea, -isourea, -guanidine and -amidine herbicidal agents” (Intellectual Property Department, BASF Aktiengesellschaft, priority 1998, published 2002)

Legend:
[1] = tested on: AMBEL (Ragweed, Common); assay: Preemergence herbicidal evaluation; type: in vivo, Ambrosia artemisifolia; details: rated 4-5 weeks after treatment; for AMBEL rating: preemergence, 0-9 scale
Source text: Results of herbicide evaluation are expressed on a rating scale (0-9). The scale is based upon a visual observation of plant stand, vigor, malformation, size, chlorosis and overall plant appearance as compared with a control.
The preemergence herbicidal activity of the test compounds of the present invention is exemplified by the following tests in which the seeds of a variety of monocotyledonous and dicotyledonous plants are separately mixed with potting soil and planted on top of approximately one inch of soil in separate pint cups. After planting, the cups are sprayed with the selected aqueous acetone solution containing test compound in sufficient quantity to provide the equivalent of about 0.0156 to 0.500 kg per hectare of test compound per cup. The treated cups are then placed on greenhouse benches, watered and cared for in accordance with conventional greenhouse procedures. From four to five weeks after treatment, the tests are terminated and each cup is examined and rated according to the rating system provided in Example 37.
The compounds evaluated are reported by compound number given in Example 37.

[2] = tested on: CYPIR (Rice Flatsedge); assay: Preemergence weed control under flooded paddy conditions; type: in vivo, Cyperus iria; details: rated 3-4 weeks after treatment
Outline: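 Ratings on a 0-9 visual scale cover stand, vigor, malformation, size, chlorosis and overall appearance relative to a control, taken three to four weeks post-treatment. Application was into flood water over freshly sown silt loam at roughly 0.0313 to 0.500 kg/ha.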

Compound | Preemergence herbicidal rating AMBEL ([1]; rate 0.0156 kg/ha) | Preemergence herbicidal rating AMBEL ([1]; rate 0.0313 kg/ha) | Preemergence herbicidal rating AMBEL ([1]; rate 0.0625 kg/ha) | Preemergence herbicidal rating AMBEL ([1]; rate 0.1250 kg/ha) | Preemergence herbicidal rating AMBEL ([1]; rate 0.2500 kg/ha) | CYPIR herbicidal effect rating ([2]; 0.0313 kg/ha) | CYPIR herbicidal effect rating ([2]; 0.0625 kg/ha) | CYPIR herbicidal effect rating ([2]; 0.1250 kg/ha) | CYPIR herbicidal effect rating ([2]; 0.2500 kg/ha) | AMBEL rating ([1]; 0.0156 kg/ha) | AMBEL rating ([1]; 0.0313 kg/ha) | AMBEL rating ([1]; 0.0625 kg/ha) | AMBEL rating ([1]; 0.1250 kg/ha) | AMBEL rating ([1]; 0.2500 kg/ha) | Preemergence herbicidal rating AMBEL ([1]; rate 0.5000 kg/ha) | herbicidal effect rating, CYPIR ([2]; 0.0313 kg/ha) | herbicidal effect rating, CYPIR ([2]; 0.0625 kg/ha) | herbicidal effect rating, CYPIR ([2]; 0.1250 kg/ha) | herbicidal effect rating, CYPIR ([2]; 0.2500 kg/ha)
COC(=O)[C@H](Cc1ccc([N+](=O)[O-])cc1)N1C(=O)CSC1=Nc1cc(-n2c(=O)cc(C(F)(F)F)n(C)c2=O)c(F)cc1Cl [Compound 78, Methyl 2-{{2-chloro-5-[3,6-dihydro-3-methyl-2,6-dioxo-4-(trifluoromethyl)-1(2H)-pyrimidinyl]-4-fluorophenyl}imino}-4-oxo-α-(p-nitrobenzyl)-3-thiazolidineacetate, L-] | 0.0 | 0.0 | 0.0 | 1.0 | 1.0 | 5.0 | 5.0 | 6.0 | 9.0 |  |  |  |  |  |  |  |  |  | 
CCOC(=O)CN1C(=O)C(CC(=O)OCCF)SC1=Nc1cc(-n2c(=O)cc(C(F)(F)F)n(C)c2=O)c(F)cc1Cl (stereo not shown) [Compound 82, 2-{{2-Chloro-5-[3,6-dihydro-3-methyl-2,6-dioxo-4-(trifluoromethyl)-1(2H)-pyrimidinyl]-4-fluoro-phenyl}imino}-4-oxo-3,5-thiazolidinediacetic acid, 3-ethyl 2-fluoroethyl ester] |  |  |  |  |  | 0.0 | 0.0 | 3.0 | 3.0 | 0.0 | 2.0 | 3.0 | 9.0 | 9.0 |  |  |  |  | 
C=CCOC(=O)CN1C(=O)CSC1=Nc1cc(-n2c(=O)cc(C(F)(F)F)n(C)c2=O)c(F)cc1Cl [Compound 106, Allyl 2-{{2-chloro-5-[3,6-dihydro-3-methyl-2,6-dioxo-4-(trifluoromethyl)-1(2H)-pyrimidinyl]-4-fluorophenyl}imino}-4-oxo-3-thiazolidineacetate] | 1.5 |  |  |  |  | 5.0 | 6.0 | 6.0 | 9.0 |  | 1.5 | 5.0 | 7.0 | 9.0 |  |  |  |  | 
COCCOC(=O)CN1C(=O)CSC1=Nc1cc(-n2c(=O)cc(C(F)(F)F)n(C)c2=O)c(F)cc1Cl [Compound 107, 2-Methoxyethyl 2-{{2-chloro-5-[3,6-dihydro-3-methyl-2,6-dioxo-4-(trifluoromethyl)-1(2H)-pyrimidinyl]-4-fluorophenyl}imino}-4-oxo-3-thiazolidineacetate] |  | 0.0 | 0.0 | 0.0 | 2.0 | 0.0 | 0.0 | 4.0 | 7.0 |  |  |  |  |  |  |  |  |  | 
CCCCOC(=O)CN1C(=O)CSC1=Nc1cc(-n2c(=O)cc(C(F)(F)F)n(C)c2=O)c(F)cc1Cl [Compound 111] | 0.0 | 0.0 | 0.0 | 6.0 | 7.0 | 0.0 | 3.0 | 4.0 | 5.0 |  |  |  |  |  |  |  |  |  | 
Cn1c(C(F)(F)F)cc(=O)n(-c2cc(N=C3SCC(=O)N3Cc3ccco3)c(Cl)cc2F)c1=O [Compound 122, 3-{4-Chloro-2-fluoro-5-[(3-furfuryl-4-oxo-2-thiazolidinylidene)amino]phenyl}-1-methyl-6-(trifluoromethyl)-2,4(1H,3H)-pyrimidinedione] | 0.0 | 0.0 | 0.0 | 2.0 | 2.0 |  |  |  |  |  |  |  |  |  | 3.0 | 4.0 | 7.0 | 7.0 | 8.0
Cn1c(C(F)(F)F)cc(=O)n(-c2cc(N=C3SCC(=O)N3CC(=O)OCC3CC3)c(Cl)cc2F)c1=O [Compound 124, Cyclopropylmethyl 2-{{2-chloro-5-[3,6-dihydro-3-methyl-2,6-dioxo-4-(trifluoromethyl)-1(2H)-pyrimidinyl]-4-fluorophenyl}imino}-4-oxo-3-thiazolidineacetate] | 0.0 | 0.0 | 4.0 | 9.0 | 9.0 |  |  |  |  |  |  |  |  |  | 9.0 | 0.0 | 0.0 | 0.0 | 6.0
